≈ marks a conversion by molar mass, not a printed value.
System: K. pneumonia HSD
Assay: microbe, parasite or virus in culture
Parameters: species or system bacterial strains
Conditions: for MIC: Klebsiella pneumoniae, read-out: MIC (μg/mL)^a / K. pneumonia HSD

Row | SMILES | MIC [µg/mL] | MIC (μg/mL)^a / K. pneumonia HSD [µg/mL]
1 | NCC[C@H](O)C(=O)N[C@@H]1C[C@H](N)[C@@H](O[C@H]2O[C@H](CN)[C@@H](O)[C@H](O)[C@H]2O)[C@H](O)[C@H]1O[C@H]1O[C@H](CO)[C@@H](O)[C@H](N)[C@H]1O [Amikacin] | > 128 | –
2 | CO/N=C(\C(=O)N[C@@H]1C(=O)N2C(C(=O)[O-])=C(C[N+]3(C)CCCC3)CS[C@H]12)c1csc(N)n1 [Cefepime] | – | 128 (≈ 266 µM)
3 | CC(C)(O/N=C(\C(=O)N[C@@H]1C(=O)N2C(C(=O)[O-])=C(C[n+]3ccccc3)CS[C@H]12)c1csc(N)n1)C(=O)O [ceftazidime] | > 128 | –

The remaining lines, values ahead:

Row | MIC [µg/mL] | MIC (μg/mL)^a / K. pneumonia HSD [µg/mL] | SMILES
4 | > 32 | – | CC1(C)S[C@@H]2[C@H](NC(=O)[C@H](N)c3ccc(O)cc3)C(=O)N2[C@H]1C(=O)O [Amoxicillin]
5 | 32 (≈ 67.3 µM) | – | C[C@@H](O)[C@H]1C(=O)N2C(C(=O)O)=C(S[C@@H]3CN[C@H](C(=O)Nc4cccc(C(=O)O)c4)C3)[C@H](C)[C@H]12 [Ertapenem]
6 | 4 (≈ 10.4 µM) | – | C[C@@H](O)[C@H]1C(=O)N2C(C(=O)O)=C(S[C@@H]3CN[C@H](C(=O)N(C)C)C3)[C@H](C)[C@H]12 [Meropenem]

Source: article PMC11172257 (Emerging Microbes & Infections, 2024)
